Assays:
[1] = test system: augmentative airway mucus secretion; settings: airway inflammation model by ozone exposure (lesion similar to chronic bronchitis); cited from earlier work
[2] = test system: augmentative mucus secretion in guinea pig trachea; assay: Suppressive effect on augmentative secretion by antigen challenge (ovalbumin-sensitized guinea pig, mucus score by PAS-Alcian Blue); format: in vivo; settings: OA-sensitized guinea pig; test drug 100 mg/kg oral; 5% OA inhaled 30 minutes after drug; trachea removed 10 minutes later
Method: Suppressive Effect on Augmentative Secretion by Antigen Challenge
Egg albumin (Ovalbumin:OA) (70 mg/kg) is administered and sensitized to guinea pig into the peritoneal cavity on the first experiment day and 8th day. The test drug (100 mg/kg) was oral administered to the sensitized guinea pig on 22nd experiment day. 5%OA was inhaled for 2 minutes 30 minutes after the test drug was administered, and the trachea was removed 10 minutes later. It was dyed with PAS-Alcian Blue, and the augmentative mucus secretion was evaluated according to the level of the decrease in mucus score.
As a test drug, 2-[5-amino-6-oxo-2-phenyl-1,6-dihydro-1-pyrimidinyl]-N-[1-[[5-(t-butyl)-1,3,4-oxadiazole-2-yl]carbonyl]-2-methylpropyl]acetamide (Compound 34) was used.

CC(C)(C)C(=O)Oc1ccc(S(=O)(=O)Nc2ccccc2C(=O)NCC(=O)O)cc1 [ONO-5046]
augmentative airway mucus secretion [1]: suppress

CC(C)C(NC(=O)Cn1c(-c2ccccc2)ncc(N)c1=O)C(=O)c1nnc(C(C)(C)C)o1 (centres unmarked) [Compound 34, 2-[5-amino-6-oxo-2-phenyl-1,6-dihydro-1-pyrimidinyl]-N-[1-[[5-(t-butyl)-1,3,4-oxadiazole-2-yl]carbonyl]-2-methylpropyl]acetamide]
mucus score (augmentative mucus secretion, PAS-Alcian Blue dye) [2]: intentionally suppressed
